# Results: patent US12497403B2, “Factor XIa inhibitors” (Merck Sharp & Dohme LLC, priority 2021, dated 2025)
# Read-outs that look alike come from different tables or passages of the source.
# Legend:
# [1] = Rat pharmacokinetics (cassette IV or screening IV/PO); format: in vivo; conditions: male; rat plasma, mean residence time
# Protocol: Plasma pharmacokinetic parameters for clearance, volume of distribution, half-life and mean residence time (MRT) were determined in rats from IV cassette administration studies. 2 male rats typically weighing 225-260 gram, were fasted overnight prior to dosing. Compounds were prepared for IV dosing by addition to a vehicle, depending on the dose used. For a typical preparation, 1 mg per mL (IV) of up to 5 test compounds were added to vehicle comprised of 20% dimethyl sulfoxide (DMSO), 60% polyethylene glycol 400 (PEG400) and 20% water. IV formulation was administered to 2 rats via pre-cannulated jugular vein. Blood was collected by pre-cannulated artery, typically at predose, 2, 8, 15, 30 min. 1, 2, 4, 6, and 8 hr postdose. Samples were collected in K2EDTA tubes, stored on ice, and centrifuged. Plasma was transferred to a micro titer plate and stored at −70° C.until analysis. Plasma samples were extracted using protein precipitation and analyzed by liquid chromatography separation followed by mass spec detection (LCMS/MS), using a standard curve for each compound. Plasma pharmacokinetic parameters were calculated by non-compartmental methods.
# Plasma pharmacokinetic parameters for clearance, volume of distribution, half-life, mean residence time (MRT) and oral bioavailability (%F)-were determined in rats from oral administration and IV administration studies. 4 male rats, typically weighing 225-260 gram, were fasted overnight prior to dosing. Compounds were prepared for oral and IV dosing by addition to a vehicle, depending on the dose used. For a typical preparation, 1 mg per mL (IV) or 1.5 mg per mL (oral) of test compound was added to vehicle comprised of 20% dimethyl sulfoxide (DMSO), 60% polyethylene glycol 400 (PEG400) and 20% water. IV formulation was administered to 2 rats via pre-cannulated jugular vein, and oral dosing was administered to 2 rats via oral gavage. Blood was collected by pre-cannulated artery, typically at predose, 2 min, 8 min, 15 min. 30 min, and 1, 2, 4, 6, and 8 hr postdose for IV, and at predose, 15 min, 30 min, and 1, 2, 4, 6, 8 hr for oral dosing. Samples were collected in K2EDTA tubes, stored on ice, and centrifuged. Plasma was transferred to a micro titer plate and stored at −70° C. until analysis. Plasma samples were extracted using protein precipitation and analyzed by liquid chromatography separation followed by mass spec detection (LCMS/MS), using a standard curve for each compound. Plasma pharmacokinetic parameters were calculated for IV and oral dosing data by non-compartmental methods. Oral bioavailability was determined as the ratio of the dose-normalized plasma area under the curve (AUC) following oral dosing vs. IV dosing.
# [2] = High-throughput (HT) solubility determination; format: physicochemical; conditions: kinetic from dmso stock
# Protocol: The chromatographic system consists of an Agilent 1290 UPLC/DAD system and ChemStation software, both from Agilent Technologies, USA. The separations are carried out on a Supelco Ascentis Express C18, 30 mm×3.0 mm I.D., 2.7 μm HPLC column. The mobile phase consists of Potassium phosphate buffered at pH 7 (mobile phase A) and acetonitrile (mobile phase B). The column oven temperature is set to 30° C. and the UPLC analysis consists of a gradient. The injection volume is 2 μL and the spectrophotometric detection is set to 215 and 238 nm.
# A 10 mM stock solution of the compound in DMSO is supplied for analysis. 2.5 μL of stock solution (10 mM) was diluted into 247.5 μL of organic co-solvents (10% MeCN/80% MeOH/10% DMSO, v/v/v) to create a standard solution of 100 μM. To create the solubility solutions, 4.1 μL of 10 mM DMSO stock solution was diluted into […] of phosphate buffered saline (PBS) (pH 7) solution. A second 4.1 μL aliquot of 10 mM DMSO stock solution was added to 196 μL of PBS (pH 2) solution. A third 4.1 uL aliquot of 10 mM DMSO stock solution was added to 196 uL of FaSSIF (pH 6.5) solution. […] The equilibrated solubility solutions were filtered by centrifugation using a filter (0.45 μm, polypropylene). 50 μL each of the 100 μM standard solution and the filtered equilibrated solubility solutions were placed into a 384 well plate, and the plate was subsequently heat sealed.
# Each standard and solubility solution was analyzed by UPLC/DAD. The solubility value was calculated by the following equation: Solubility=(Peak area of sample/Peak area of standard) (Standard concentration)
# [3] = Dog pharmacokinetics (screening IV/PO or cassette IV); format: in vivo; conditions: male; dog plasma, mean residence time
# Protocol: Plasma pharmacokinetic parameters for clearance, volume of distribution, half-life, mean residence time (MRT) and oral bioavailability were determined in dogs from oral administration and IV administration studies. 4 male dogs, typically weighing 8-12 kilograms, were fasted overnight prior to dosing. Compounds were prepared for oral and IV dosing by addition to a vehicle, depending on the dose used. For a typical preparation, 1 mg per mL (IV) or 1.5 mg per mL (oral) of test compound was added to vehicle comprised of 20% dimethyl sulfoxide (DMSO), 60% polyethylene glycol 400 (PEG400) and 20% water. IV formulation was administered to 2 dogs via the saphenous or cephalic vein, and oral dosing was administered to 2 dogs via oral gavage. Blood was collected by the cephalic or jugular vein, typically at predose, 2 min, 8 min, 15 min, 30 min, and 1, 2, 4, 6, 8 and 24 hr postdose for IV, and at predose, 15 min, 30 min, and 1, 2, 4, 6, 8, and 24 hr for oral dosing. Samples were collected in K2EDTA tubes, stored on ice. and centrifuged. Plasma was transferred to a micro titer plate and stored at −70° C.until analysis. Plasma samples were extracted using protein precipitation and analyzed by liquid chromatography separation followed by mass spec detection (LCMS/MS), using a standard curve for each compound. Plasma pharmacokinetic parameters were calculated for IV and oral dosing data by non-compartmental methods. Oral bioavailability was determined as the ratio of the dose-normalized plasma area under the curve (AUC) following oral dosing vs. IV dosing.
# Plasma pharmacokinetic parameters for clearance, volume of distribution, half-life, and mean residence time (MRT) were determined in dogs from IV cassette administration studies. 2 male dogs, typically weighing 8-12 kilograms, were fasted overnight prior to dosing. Compounds were prepared for IV dosing by addition to a vehicle, depending on the dose used. For a typical preparation, 1 mg per mL (IV) of up to 5 test compounds were added to vehicle comprised of 20% dimethyl sulfoxide (DMSO), 60% polyethylene glycol 400 (PEG400) and 20% water. IV formulation was administered to 2 dogs via the saphenous or cephalic vein. Blood was collected by the cephalic or jugular vein, typically at predose. 2, 8, 15, 30 min, 1, 2, 4, 6, 8 and 24 hr postdose. Samples were collected in K2EDTA tubes, stored on ice, and centrifuged. Plasma was transferred to a micro titer plate and stored at −70° C. until analysis. Plasma samples were extracted using protein precipitation and analyzed by liquid chromatography separation followed by mass spec detection (LCMS/MS), using a standard curve for each compound. Plasma pharmacokinetic parameters were calculated by non-compartmental methods.
# [4] = FaSSIF pH 6.5, shaken 24 hours at 25° C., read-out: pH 6.5 (FaSSIF) solubility
# [5] = phosphate buffered saline (PBS) pH 2, aqueous buffer, PBS pH 2, shaken 24 hours at 25° C., read-out: pH 2 solubility
Compound,MRT [1],"solubility kinetic at 24 h [2, 4]","solubility kinetic at 24 h [2, 5]",MRT [3]
"CCOC(=O)c1[nH]c2nc1-c1ccc(NC(=O)OC)cc1NC(=O)C(C)(C)CCC[C@@H]2c1ccc(-c2cc(Cl)ccc2-n2cc(C(F)(F)F)cn2)c[n+]1[O-] [Example 2, (R,Z)-5-(5-chloro-2-(4-(trifluoromethyl)-1H-pyrazol-1-yl)phenyl)-2-(1^5-(ethoxycarbonyl)-2^4-((methoxycarbonyl)amino)-5,5-dimethyl-4-oxo-1^1H-3-aza-1(4,2)-imidazola-2(1,2)-benzenacyclononaphane-9-yl)pyridine 1-oxide]",3.7 h,27 µM,104 µM,15 h
"CCOC(=O)c1[nH]c2nc1-c1ccc(NC(=O)OC)cc1NC(=O)C(C)(C)CCC[C@@H]2c1ccc(-c2cc(F)ccc2-n2cc(C(F)(F)F)cn2)c[n+]1[O-] [Example 1, (R,Z)-2-(1^5-(ethoxycarbonyl)-2^4-((methoxycarbonyl)amino)-5,5-dimethyl-4-oxo-1^1H-3-aza-1(4,2)-imidazola-2(1,2)-benzenacyclononaphane-9-yl)-5-(5-fluoro-2-(4-(trifluoromethyl)-1H-pyrazol-1-yl)phenyl)pyridine 1-oxide]",4 h,39 µM,147 µM,12 h
"COC(=O)Nc1ccc2c(c1)NC(=O)C(C)(C)CCC[C@H](c1ccc(-c3cc(F)ccc3-n3cc(C(F)(F)F)cn3)c[n+]1[O-])c1nc-2c(C(=O)OC)[nH]1 [Example 6, (R,Z)-5-(5-fluoro-2-(4-(trifluoromethyl)-1H-pyrazol-1-yl)phenyl)-2-(1^5-(methoxycarbonyl)-2^4-((methoxycarbonyl)amino)-5,5-dimethyl-4-oxo-1^1H-3-aza-1(4,2)-imidazola-2(1,2)-benzenacyclononaphane-9-yl)pyridine 1-oxide]",3.1 h,64 µM,163 µM,8.9 h

# Next, values leading:
MRT [1],"solubility kinetic at 24 h [2, 4]","solubility kinetic at 24 h [2, 5]",MRT [3],Compound
3.2 h,40 µM,171 µM,6.1 h,"CCOC(=O)c1[nH]c2nc1-c1ccc(NC(=O)OC)cc1NC(=O)C(C)(C)CCC[C@@H]2c1ccc(-c2cc(F)ccc2OC(F)F)c[n+]1[O-] [Example 3, (R,Z)-5-(2-(difluoromethoxy)-5-fluorophenyl)-2-(1^5-(ethoxycarbonyl)-2^4-((methoxycarbonyl)amino)-5,5-dimethyl-4-oxo-1^1H-3-aza-1(4,2)-imidazola-2(1,2)-benzenacyclononaphane-9-yl)pyridine 1-oxide]"
3.8 h,33 µM,137 µM,9.9 h,"CCOC(=O)c1[nH]c2nc1-c1ccc(NC(=O)OC)cc1NC(=O)C(C)(C)CCC[C@@H]2c1ccc(-c2cc(Cl)cnc2OC(F)F)c[n+]1[O-] [Example 4, (R,Z)-5′-chloro-2′-(difluoromethoxy)-6-(1^5-(ethoxycarbonyl)-2^4-((methoxycarbonyl)amino)-5,5-dimethyl-4-oxo-1^1H-3-aza-1(4,2)-imidazola-2(1,2)-benzenacyclononaphane-9-yl)-[3,3′-bipyridine] 1-oxide]"
3.7 h,51 µM,108 µM,7.2 h,"CCOC(=O)c1[nH]c2nc1-c1ccc(NC(=O)OC)cc1NC(=O)C(C)(C)CCC[C@@H]2c1ccc(-c2cccc(Cl)c2F)c[n+]1[O-] [Example 5, (R,Z)-5-(3-chloro-2-fluorophenyl)-2-(1^5-(ethoxycarbonyl)-2^4-((methoxycarbonyl)amino)-5,5-dimethyl-4-oxo-1^1H-3-aza-1(4,2)-imidazola-2(1,2)-benzenacyclononaphane-9-yl)pyridine 1-oxide]"
